The assay has as its system CD2F1 mice, L1210 leukemia ip, survival T/C. As to the kind of experiment: NCI In Vivo Anticancer Drug Screen. Data for tumor model L1210 Leukemia (intraperitoneal) in CD2F1 (CDF1) mice. The note with it: endpoint: mean survival time, higher = longer survival. In outline: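 Transplantable tumor in mice; compound-treated vs vehicle-treated groups. Read-out = treated/control ratio of the measured endpoint.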

Where [1] appears, read: dose: 100.0 mg/kg/injection, schedule: Q04DX003 (ip), vehicle: saline with Tween-80.
Where [2] appears, read: dose: 200.0 mg/kg/injection, schedule: Q04DX003 (ip), vehicle: saline with Tween-80.
[3] abbreviates: dose: 400.0 mg/kg/injection, schedule: Q04DX003 (ip), vehicle: saline with Tween-80.
The mark [4] stands for this setting: dose: 100.0 mg/kg/injection, schedule: Q01DX001 (ip), vehicle: saline.
Where [5] appears, read: dose: 100.0 mg/kg/injection, schedule: Q04DX003 (ip), vehicle: saline.
[6] abbreviates: dose: 200.0 mg/kg/injection, schedule: Q01DX001 (ip), vehicle: saline.
Where [7] appears, read: dose: 200.0 mg/kg/injection, schedule: Q04DX003 (ip), vehicle: saline.
Setting [8] is: dose: 400.0 mg/kg/injection, schedule: Q01DX001 (ip), vehicle: saline.
Where [9] appears, read: dose: 400.0 mg/kg/injection, schedule: Q04DX003 (ip), vehicle: saline.
[10] abbreviates: dose: 100.0 mg/kg/injection, schedule: Q01DX009 (ip), vehicle: saline with Tween-80.
The mark [11] stands for this setting: dose: 200.0 mg/kg/injection, schedule: Q01DX009 (ip), vehicle: saline with Tween-80.
The mark [12] stands for this setting: dose: 400.0 mg/kg/injection, schedule: Q01DX009 (ip), vehicle: saline with Tween-80.
Where [13] appears, read: dose: 50.0 mg/kg/injection, schedule: Q01DX009 (ip), vehicle: saline with Tween-80.
Setting [14] is: dose: 100.0 mg/kg/injection, schedule: Q01DX001 (ip), vehicle: saline with Tween-80.
[15] abbreviates: dose: 100.0 mg/kg/injection, schedule: Q04DX002 (ip), vehicle: saline with Tween-80.
Setting [16] is: dose: 400.0 mg/kg/injection, schedule: Q01DX001 (ip), vehicle: saline with Tween-80.

The values that follow come from PubChem BioAssay AID256 (DTP/NCI, 2004).

“And” between values parts separate entries of the source, which are not always exact repeats. Identical values can stand only once. Toxic doses and inconclusive results are not listed.

For `COc1cc2c(cc1O)C(C)NCC2` (stereo not given), the T/C runs as follows: (dose: 75.0 mg/kg/injection, schedule: Q01DX001 (ip), vehicle: saline) 109 % of control; (dose: 150.0 mg/kg/injection, schedule: Q01DX001 (ip), vehicle: saline) 101 % of control.

With `CCc1c(CNc2ccc(C(=O)NC(CC(=O)O)C(=O)O)cc2)ccc2nc(N)nc(N)c12` (stereo not given), the T/C runs as follows: (dose: 0.25 mg/kg/injection, schedule: Q01DX001 (ip), vehicle: saline) 105 % of control; (dose: 0.5 mg/kg/injection, schedule: Q01DX001 (ip), vehicle: saline) 114 % of control; (dose: 1.0 mg/kg/injection, schedule: Q01DX001 (ip), vehicle: saline) 119 % of control; (dose: 4.0 mg/kg/injection, schedule: Q01DX001 (ip), vehicle: saline) 163 % of control.

`CC(=O)COc1ccccc1NC(C)=O`: the T/C was 91 % of control under setting [1], 102 % of control under setting [2] and 91 % of control under setting [3].

For the compound `CC1(C)C(C2CCCC[N+]2=O)CS1(=O)=O` (stereo not given), the T/C under setting [4] was 100 % of control; the T/C under setting [5] is 101 % of control; the T/C under setting [6] is 100 % of control; the T/C under setting [7] was 103 % of control; the T/C under setting [8] is 96 % of control; the T/C under setting [9] was 105 % of control.

Consider `CCCN(CCC)S(=O)(=O)c1ccc(NC(=O)OC2CCCCCC2)cc1`, for which the T/C by setting is: under setting [4], 104 % of control; under setting [6], 108 % of control; under setting [8], 104 % of control.

Regarding `O=c1[nH]cc(Cl)cc1Cl`, the T/C (dose: 100.0 mg/kg/injection, schedule: Q04DX003 (ip), vehicle: other) was 91 % of control; the T/C (dose: 200.0 mg/kg/injection, schedule: Q04DX003 (ip), vehicle: other) was 103 % of control; the T/C (dose: 400.0 mg/kg/injection, schedule: Q04DX003 (ip), vehicle: other) was 105 % of control.

In the case of `C1=CC2c3ccccc3C1C1C=CC21` (stereo not given), the T/C is 95 % of control under setting [10]; 91 % of control under setting [1]; 108 % of control under setting [11]; 93 % of control under setting [2]; 93 % of control under setting [12]; 93 % of control under setting [3].

Take `CCOC(=O)C(CCCCC(NC(C)=O)(C(=O)OCC)C(=O)OCC)(NC(C)=O)C(=O)OCC`: the T/C under setting [1] was 98 % of control, the T/C under setting [2] is 92 % of control and the T/C under setting [3] was 92 % of control.

On to `COc1ccc(OCCOC(=O)Nc2c(Cl)cccc2Cl)cc1`, for which the T/C reads like this: under setting [13], 98 % of control; under setting [10], 94 % of control; under setting [11], 94 % of control.

On to `CC(=O)Oc1ccc(Nc2c3ccccc3nc3ccccc23)cc1`, for which the T/C is, setting by setting: (dose: 44.0 mg/kg/injection, schedule: Q01DX001 (ip), vehicle: saline with Tween-80) 119 % of control; (dose: 44.0 mg/kg/injection, schedule: Q01DX009 (ip), vehicle: saline with Tween-80) 155 % of control; (dose: 66.0 mg/kg/injection, schedule: Q01DX001 (ip), vehicle: saline with Tween-80) 109 % of control; (dose: 66.0 mg/kg/injection, schedule: Q01DX009 (ip), vehicle: saline with Tween-80) 94 % of control; under setting [14], 152 % of control; under setting [10], 88 % of control. Also, the T/C under setting [15] was 177 % of control.

For `CC(=O)OC1CCC2(C)C(CCC3C2CCC2(C)C3CC3OC(CCC(C)CO)C(C)C32)C1` (stereo not given), the T/C is 95 % of control under setting [10], 91 % of control under setting [11] and 96 % of control under setting [12].

On to `c1ccc(C2=NN(c3ccccc3)CN(c3ccccc3)N2)cc1`, for which the T/C was 106 % of control under setting [10], 97 % of control under setting [11] and 96 % of control under setting [12].

Consider `CCOC(=O)CSc1ccccc1`, for which the T/C is 93 % of control (dose: 25.0 mg/kg/injection, schedule: Q01DX005 (ip), vehicle: Klucel (hydroxypropylcellulose) (HPC)); 95 % of control (dose: 50.0 mg/kg/injection, schedule: Q01DX005 (ip), vehicle: Klucel (hydroxypropylcellulose) (HPC)); 102 % of control under setting [4]; 102 % of control (dose: 100.0 mg/kg/injection, schedule: Q01DX005 (ip), vehicle: Klucel (hydroxypropylcellulose) (HPC)); 100 % of control under setting [6]; 95 % of control (dose: 200.0 mg/kg/injection, schedule: Q01DX005 (ip), vehicle: Klucel (hydroxypropylcellulose) (HPC)). Moreover, the T/C is, setting by setting: under setting [8], 100 % of control; (dose: 400.0 mg/kg/injection, schedule: Q01DX005 (ip), vehicle: Klucel (hydroxypropylcellulose) (HPC)) 95 % of control.

`CCOC/C=C\C1CCCC1`: the T/C is, setting by setting: under setting [13], 94 % of control; under setting [10], 100 % of control; under setting [11], 102 % of control.

Consider `O=C(Nc1ccc(S(=O)(=O)F)c(Cl)c1)Oc1ccccc1`, for which the T/C runs as follows: under setting [10], 101 % of control; under setting [5], 95 % of control; under setting [11], 100 % of control; under setting [7], 95 % of control; under setting [12], 97 % of control; under setting [9], 101 % of control.

As to `Cc1ccc(S(=O)(=O)N(CCCc2c(C)nc(N)nc2Nc2ccccc2)c2ccccc2)cc1`, the T/C under setting [14] was 92 % of control.

Regarding `C[C@]12CCC(=O)C=C1CC[C@@H]1[C@@H]2[C@@H](O)C[C@@]2(C)[C@H]1CC[C@]2(O)C(=O)COC(=O)COCC(=O)O`, the T/C is 106 % of control (dose: 100.0 mg/kg/injection, schedule: Q01DX001 (sc), vehicle: steriod suspending solution); 108 % of control (dose: 200.0 mg/kg/injection, schedule: Q01DX001 (sc), vehicle: steriod suspending solution); 103 % of control (dose: 400.0 mg/kg/injection, schedule: Q01DX001 (sc), vehicle: steriod suspending solution).

As to `COC(=O)C1(C)CCCC2(C)C1CCC13OCC(CC21)C(=C(C)C)C3OC(C)=O` (stereo not given), the T/C under setting [1] is 100 % of control, the T/C under setting [2] was 95 % of control and the T/C under setting [3] was 100 % of control.

With `CC1OC(OC2C(OC3CCC4(C)C(CCC5(C)C4CC=C4C6CC(C)(C)CCC6(CO)C(O)CC45C)C3(C)C)OC(CO)C(OC3OC(COC4OC(CO)C(O)C(O)C4O)C(O)C(O)C3O)C2O)C(O)C(O)C1O` (stereo not given), under “dose: 50.0 mg/kg/injection, schedule: Q01DX001 (sc), vehicle: steriod suspending solution”, the T/C was 103 % of control.

With `CN(C(=O)N(CCCl)N=O)C1CCCCC1`, the T/C is, setting by setting: (dose: 16.0 mg/kg/injection, schedule: Q01DX001 (ip), vehicle: saline with Tween-80) 96 % of control; (dose: 24.0 mg/kg/injection, schedule: Q01DX001 (ip), vehicle: saline with Tween-80) 98 % of control; (dose: 36.0 mg/kg/injection, schedule: Q01DX001 (ip), vehicle: saline with Tween-80) 108 % of control; (dose: 54.0 mg/kg/injection, schedule: Q01DX001 (ip), vehicle: saline with Tween-80) 110 % of control; (dose: 80.0 mg/kg/injection, schedule: Q01DX001 (ip), vehicle: saline with Tween-80) 123 % of control; (dose: 180.0 mg/kg/injection, schedule: Q01DX001 (ip), vehicle: saline with Tween-80) 236 % of control. The T/C is 396 % of control (dose: 268.0 mg/kg/injection, schedule: Q01DX001 (ip), vehicle: saline with Tween-80) and 353 % of control under setting [16].

For the compound `COC1OC(CO)C(NC(N)=O)C1O` (stereo not given), the T/C was 101 % of control under setting [4], 100 % of control under setting [6] and 95 % of control under setting [8].

Take `CCOC(=O)c1ccc(NC(=O)Nc2ccc(N(C)C(C)=O)cc2)cc1`: the T/C (dose: 25.0 mg/kg/injection, schedule: Q04DX003 (ip), vehicle: saline with Tween-80) is 98 % of control; the T/C under setting [13] is 87 % of control; the T/C (dose: 50.0 mg/kg/injection, schedule: Q04DX003 (ip), vehicle: saline with Tween-80) is 96 % of control; the T/C under setting [14] was 100 % of control; the T/C under setting [10] was 87 % of control and 101 % of control; the T/C under setting [15] was 90 % of control and 97 % of control. The T/C was 94 % of control and 109 % of control under setting [1]; 97 % of control (dose: 200.0 mg/kg/injection, schedule: Q01DX001 (ip), vehicle: saline with Tween-80); 90 % of control and 91 % of control under setting [11]; 87 % of control and 91 % of control (dose: 200.0 mg/kg/injection, schedule: Q04DX002 (ip), vehicle: saline with Tween-80); 104 % of control under setting [2]; 102 % of control under setting [16]. In addition, the T/C (dose: 400.0 mg/kg/injection, schedule: Q04DX002 (ip), vehicle: saline with Tween-80) was 88 % of control and 94 % of control.
